Patent publication US20120308567A1, “USE OF TYROSINE KINASE INHIBITORS FOR TREATMENT OF PROLACTINOMA” (CEDARS-SINAI MEDICAL CENTER, priority 2010, published 2012)

Tests used:
human prolactinoma cells = assay: Realtime PCR of PRL in primary human prolactinoma cell cultures; assay type: cell-based; conditions: Tumor B; 0.1-5 μM, 24 hr, in the absence of added EGF
Experimental: A, B, D, and E. After trans-sphenoidal surgery of human prolactinomas, tumor cells were cultured. […] PRL levels in culture media were measured using RIA (B). H&E and PRL staining of tumor and confocal immunocytochemistry of EGFR and HER2 (Tumor A) (C), or for Tumor B (F). Magnification of these figures was 100×. […] PRL levels in culture media were measured using RIA (E). Prolactinoma cells (Tumor B) were treated with U0126 (0.1-5 μM) for 24 hr, and Realtime PCR of PRL performed (G).
Total RNA was extracted with Trizol reagent (Invitrogen) according to instructions of the manufacturer. The amount and the integrity of RNA were assessed by measurement of absorbance at 260 and 280 nm. Total RNA was reverse-transcribed into first-strand cDNA using iScript cDNA synthesis kit (Bio-Rad Laboratories, Inc.) according to the manufacturer. Quantitative PCR reactions were carried out in the iQ5 Multicolor Real-time PCR Detection System (Bio-Rad Laboratories, Inc.) as described (8). Certified RT^2 primer assays for rat GH, PRL and human PRL were purchased from SuperArray. Primer sequences (Invitrogen) were 5′-[…]-3′ (18S rRNA forward (F)), 5′-[…]-3′ (18S rRNA reverse (R)), 5′-[…]-3′ (human (3-actin F), 5′-[…]-3′ (human (3-actin R), 5′-[…]-3′ (human GAPDH F), 5′-[…]-3′ (human GAPDH R).
Human prolactinoma tissues were obtained at the time of surgery (Pituitary Center, Cedars-Sinai Medical Center) and transferred in 0.3% BSA containing DMEM according to an IRB-approved protocol. After washing with medium, tumor tissues were chopped with a sterile scalpel into approximately 1-2 mm pieces. Tissues were rinsed and digested with DMEM containing 0.3% BSA, 0.35% collagenase, and 0.15% hyaluronidase at 37° C. for 30 min The mixture was centrifuged at 1,500 rpm for 5 min at 4° C., and the cell pellet resuspended in an appropriate volume of culture medium containing 10% FBS and antibiotics in 48 well plates. After 24 hr incubation with serum depleted starvation medium (DMEM with 0.3% BSA), treatment agents were added with fresh serum-depleted medium (0.3% BSA), and medium collected for RIA. RNA was extracted after 24 hr treatment. Medium was also collected at baseline. To normalize for cell number effect, the PRL value of treated medium was divided by that of pre-treatment starvation medium to obtain a treated value for each well (n=4).

[1] = tested on: GH3 cells stably expressing HER2CA; assay: Soft agarose colony-forming assay, HER2CA transfectants; assay type: cell-based, rat; conditions: HER2CA transfectants, 10 d after seeding
Experimental: B. GH3 cells stably expressing HER2CA or pcDNA3 were plated (4,000 per well) in 96 well plates for the indicated times, and WST assay performed. C. […] Values are mean±SEM. *p<0.05, ** p<0.01, ^‡p<0.05 vs pcDNA3 control, ^†p<0.05 vs HER2CA control, ^‡‡p<0.05 vs pcDNA3 control, ^††p<0.05 vs HER2CA control.
Base layers consisting of growth medium containing 0.6% low-melting point agarose (Invitrogen) were poured onto 6-well plates and allowed to solidify. Cells (8×10^3 per well) were plated in triplicate in top layers consisting of growth medium containing 0.3% agarose. Seven to ten days later, cells were stained with 0.2% iodonitrotetrazolium chloride (Invitrogen), and colonies composed of 50 cells were counted manually in 5 randomly selected fields.

[2] = tested on: GH3 cells stably expressing HER2CA; assay: RIA of PRL and GH secretion in culture medium of GH3 stable transfectants; assay type: cell-based, rat; conditions: each respective transfectant (pcDNA3, HER2CA); 5 nM EGF or 6 nM HRG
Experimental: μM) for the indicated times, and Realtime PCR analysis performed. C. GH and PRL secretion in the culture medium determined by RIA. Hormone secretion levels were normalized for cell numbers, Values are mean±SEM. *p<0.05, **p<0.01.
GH3 rat lacto-somatotroph tumor cells secreting PRL and GH were purchased from the American Type Culture Collection. HER2CA cells were generated by transfection with pcDNA3-HER2CA (V654E) purchased from Addgene (Addgene plasmid 16259). Stable colonies were selected in the presence of 500 μg/ml G418 (Invitrogen). A vector control cell line pcDNA3 was simultaneously established by transfecting pcDNA3 that lacked inserted cDNA. After selection and propagation of stable transfectants, cells were cultured in DMEM/F12 medium containing 15% horse serum, 2.5% FBS, penicillin/streptomycin, and 500 μg/m G418. After synchronization by serum starvation (medium containing 0.2% bovine serum albumin for ˜24 h), cells with treatment agents was grown in fresh serum-depleted medium (0.2% bovine serum albumin), and samples collected at the indicated times.
RIAs for rat GH and PRL were performed in duplicate, using reagents provided by the National Hormone and Pituitary Program, National Institute of Diabetes and Digestive and Kidney Diseases (Harbor-UCLA Medical Center, Torrance, Calif., USA). Iodination of GH and PRL (5 μg) with iodine-125 (500 μCi) (PerkinElmer life & Analytical Sciences, Boston, Mass., USA) mixed with 0.1 mg Iodo-Gen (Pierce, Rockford, Ill.) was performed using 10-ml columns prepared by G-75 Sephadex (Sigma Chemical Co.). Low interspecies cross-reactivity of the GH and PRL assays were previously shown (8).

[3] = tested on: GH3 cells stably expressing HER2CA; assay: Realtime PCR of PRL and GH mRNA in GH3 stable transfectants; assay type: cell-based, rat; conditions: each respective transfectant (pcDNA3, HER2CA); 5 nM EGF or 6 nM HRG
Experimental: A. […] C. GH and PRL secretion in the culture medium determined by RIA. Hormone secretion levels were normalized for cell numbers, Values are mean±SEM. *p<0.05, **p<0.01. […] GH3 rat lacto-somatotroph tumor cells secreting PRL and GH were purchased from the American Type Culture Collection. HER2CA cells were generated by transfection with […]) purchased from Addgene (Addgene plasmid 16259). Stable colonies were selected in the presence of 500 μg/ml G418 (Invitrogen). A vector control cell line pcDNA3 was simultaneously established by transfecting pcDNA3 that lacked inserted cDNA. […] After synchronization by serum starvation (medium containing 0.2% bovine serum albumin for 24 h), cells with treatment agents was grown in fresh serum-depleted medium (0.2% bovine serum albumin), and samples collected at the indicated times. Total RNA was extracted with Trizol reagent (Invitrogen) according to instructions of the manufacturer. The amount and the integrity of RNA were assessed by measurement of absorbance at 260 and 280 nm. Total RNA was reverse-transcribed into first-strand cDNA using iScript cDNA synthesis kit (Bio-Rad Laboratories, Inc.) according to the manufacturer. Quantitative PCR reactions were carried out in the iQ5 Multicolor Real-time PCR Detection System (Bio-Rad Laboratories, Inc.) as described (8). […] Primer sequences (Invitrogen) were [NT] rRNA forward ([…] rRNA reverse ([NT] (human (3-actin [NT] (human (3-actin […]).

Compound | suppression of human PRL expression (human prolactinoma cells) [%] | enhancement of colony formation in soft agar [1] [fold] | induction of PRL secretion [2] | induction of PRL expression [3]
N#CC(=C(/N)Sc1ccccc1N)/C(C#N)=C(\N)Sc1ccccc1N [U0126] | ~55 |  |  | 
EGF: epidermal growth factor, ErbB family receptor ligand, from Sigma (NSDSECPLSHDGYCLHDGVCMYIEALDKYACNCVVGYIGERCQYRDLKWWELR; Epidermal growth factor; UniProt P01133 971-1023, looked up) |  | ~8 | approximately 2 fold | approximately 2 fold
